Source: ChEMBL document CHEMBL4145663, “Sweet Binders: Carbonic Anhydrase IX in Complex with Sucralose” (ACS Med Chem Lett, 2018)

Columns and labels:
[1] = target: Carbonic anhydrase 2 (Homo sapiens, UniProt P00918); assay: Binding affinity to carbonic anhydrase 2 (unknown origin)
[2] = target: Carbonic anhydrase 9 (Homo sapiens, UniProt Q16790); assay: Binding affinity to carbonic anhydrase 9 (unknown origin) expressed in Escherichia coli BL21 (DE3)

Ki [1] [µM]	Ki [2] [µM]	Compound
> 20	> 20	OC[C@H]1O[C@@](CO)(O[C@H]2O[C@H](CO)[C@@H](O)[C@H](O)[C@H]2O)[C@@H](O)[C@@H]1O [SUCROSE]
0.3	2.2	OC[C@H]1O[C@H](O[C@]2(CCl)O[C@H](CCl)[C@@H](O)[C@@H]2O)[C@H](O)[C@@H](O)[C@H]1Cl [SUCRALOSE]
